From patent US6828332B1, “Piperidine derivatives as reuptake inhibitors” (Eli Lilly and Company, priority 1999, dated 2004)
Where a name gives a salt, the structure may show the parent alone.

melting point [°C]	Structure (SMILES)
100 to 107	OC(C1CCCCC1)C(CCN1CC=C(c2csc3ccccc23)CC1)c1ccccn1 (centres unmarked) (as salt: oxalate)
228 to 230	O=C(C1CCCCC1)C(CCN1CC=C(c2cc3ccccc3s2)CC1)c1ccccn1 (centres unmarked) (as salt: oxalate)
164 to 169	O=C(C1CCCCC1)C(CCN1CC=C(c2ccc3ccsc3c2)CC1)c1ccccn1 (centres unmarked) (as salt: oxalate)
208 to 210	O=C(C1CCCCC1)C(CCN1CC=C(c2csc3ccccc23)CC1)c1ccccn1 (centres unmarked) (as salt: oxalate)
190 to 192	OC(C1CCCCC1)C(CCN1CC=C(c2ccc3sccc3c2)CC1)c1ccccn1 (single isomer, unassigned) (as salt: oxalate)
94 to 98	OC(C1CCCCC1)C(CCN1CC=C(c2ccc3ccsc3c2)CC1)c1ccccn1 (centres unmarked) (as salt: oxalate)
210 to 212	OC(C1CCCCC1)C(CCN1CC=C(c2cc3ccccc3s2)CC1)c1ccccn1 (single isomer, unassigned) (as salt: oxalate)
194 to 196	O=C(C1CCCCC1)C(CCN1CC=C(c2ccc3sccc3c2)CC1)c1ccccn1 (centres unmarked) (as salt: oxalate)
